Like-named read-outs stand apart in the source and are kept apart here.
Key:
[1] = target: HCV RNA-dependent RNA polymerase (NS5B protein) (Hepatitis C virus genotype 1b, UniProt P26663); test: biochemical; set-up: species or system HCV-Bk strain
[2] = [3H]Thymidine incorporation assay (CC50); conditions: human
[3] = system: HCV replicon (genotype 1b) in Huh7 cell line ET; test: microbe, parasite or virus in culture; assay type: cell-based, HCV genotype 1b; conditions: read-out: HCV-Replicon-Luci-Et-1b_IC50
[4] = system: HCV sub-genomic replicon of genotype 1a in cell line W11.8; test: microbe, parasite or virus in culture; assay type: cell-based, HCV genotype 1a; conditions: Hepatitis C virus, W11.8, 96 h, read-out: HCV-Replicon-ELISA-1a IC50

Sequence of HCV RNA-dependent RNA polymerase (NS5B protein) (P26663 2420-2989 limits assumed): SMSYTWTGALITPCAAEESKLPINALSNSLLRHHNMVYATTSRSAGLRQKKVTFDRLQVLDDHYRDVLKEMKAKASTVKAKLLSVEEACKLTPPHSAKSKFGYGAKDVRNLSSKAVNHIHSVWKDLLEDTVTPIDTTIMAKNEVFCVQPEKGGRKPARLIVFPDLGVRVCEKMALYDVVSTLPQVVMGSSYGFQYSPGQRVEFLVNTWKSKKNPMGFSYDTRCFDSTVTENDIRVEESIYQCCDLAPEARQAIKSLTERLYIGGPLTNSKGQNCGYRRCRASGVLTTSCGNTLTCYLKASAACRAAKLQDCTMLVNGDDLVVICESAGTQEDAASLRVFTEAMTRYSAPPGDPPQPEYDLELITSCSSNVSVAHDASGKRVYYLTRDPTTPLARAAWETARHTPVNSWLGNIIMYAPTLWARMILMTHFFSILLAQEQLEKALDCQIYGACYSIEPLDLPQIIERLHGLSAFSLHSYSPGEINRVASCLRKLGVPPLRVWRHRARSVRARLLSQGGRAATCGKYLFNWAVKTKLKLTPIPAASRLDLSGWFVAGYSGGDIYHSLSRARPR

Work on CC(C)(C)C#Cc1cc(N(C(=O)c2ccc(Cl)cc2)[C@H]2CC[C@H](O)CC2)c(C(=O)O)s1 [Compound 16, 3-[(4-Chloro-benzoyl)-(trans-4-hydroxy-cyclohexyl)-amino]-5-(3,3-dimethyl-but-1-ynyl)-thiophene-2-carboxylic acid] yielded an IC50 [1] of 100 to 1000 nM and a CC50 at 72 h [2] of 10000 to 100000 nM.

For CC(C)(C)C#Cc1cc(N(C(=O)c2ccc(Cl)cc2Cl)[C@H]2CC[C@H](O)CC2)c(C(=O)O)s1 [Compound 2, 3-[(2,4-Dichloro-benzoyl)-(trans-4-hydroxy-cyclohexyl)-amino]-5-(3,3-dimethyl-but-1-ynyl)-thiophene-2-carboxylic acid], the IC50 [1] was 100 to 1000 nM and the IC50 ([3]; Hepatitis C virus, Huh-7, 96 h) was < 100 nM.

Cc1ccc(C(=O)N(c2cc(C#CC(C)(C)C)sc2C(=O)O)[C@H]2CC[C@H](O)CC2)c(F)c1 [Compound 54, 5-(3,3-Dimethyl-but-1-ynyl)-3-[(2-fluoro-4-methyl-benzoyl)-(trans-4-hydroxy-cyclohexyl)-amino]-thiophene-2-carboxylic acid] gave an IC50 [1] of 1000 to 10000 nM.

In the case of COCCN(C(=O)c1ccc(Cl)cc1Cl)c1cc(C#CC(C)(C)C)sc1C(=O)O [Compound 44, 3-[(2,4-Dichloro-benzoyl)-(2-methoxy-ethyl)-amino]-5-(3,3-dimethyl-but-1-ynyl)-thiophene-2-carboxylic acid], the IC50 [4] is reported as 100 to 1000 nM, the IC50 [1] is reported as 100 to 1000 nM and the IC50 ([3]; Hepatitis C virus, Huh-7, 96 h) is reported as < 100 nM. The CC50 at 72 h [2] was 10000 to 100000 nM.

CC(C)(C)C#Cc1cc(N(C(=O)c2ccc(C(F)(F)F)cc2)[C@H]2CC[C@H](O)CC2)c(C(=O)O)s1 [Compound 22] gave an IC50 [1] of 1000 to 10000 nM.

In the case of CC(C)(C)C#Cc1cc(N(C(=O)c2ccc(F)cc2)[C@H]2CC[C@H](O)CC2)c(C(=O)O)s1 [Compound 51, 5-(3,3-Dimethyl-but-1-ynyl)-3-[(4-fluoro-benzoyl)-(trans-4-hydroxy-cyclohexyl)-amino]-thiophene-2-carboxylic acid], the IC50 [1] is reported as 1000 to 10000 nM and the CC50 at 72 h [2] is reported as > 100000 nM.

For CC(C)(C)C#Cc1cc(N(C(=O)c2ccc(Cl)cc2F)[C@H]2CC[C@H](O)CC2)c(C(=O)O)s1 [Compound 17, 3-[(4-Chloro-2-fluoro-benzoyl)-(trans-4-hydroxy-cyclohexyl)-amino]-5-(3,3-dimethyl-but-1-ynyl)-thiophene-2-carboxylic acid], the IC50 [1] was 1000 to 10000 nM and the IC50 ([3]; Hepatitis C virus, Huh-7, 96 h) was < 100 nM.

In the case of Cc1ccc(C(=O)N(c2cc(C#CC(C)(C)C)sc2C(=O)O)[C@H]2CC[C@H](O)CC2)cc1F [Compound 24, 5-(3,3-Dimethyl-but-1-ynyl)-3-[(3-fluoro-4-methyl-benzoyl)-(trans-4-hydroxy-cyclohexyl)-amino]-thiophene-2-carboxylic acid], the IC50 [1] is reported as 1000 to 10000 nM, the IC50 ([3]; Hepatitis C virus, Huh-7, 96 h) is reported as < 100 nM and the CC50 at 72 h [2] is reported as 10000 to 100000 nM.

With CC(C)N(C(=O)c1ccc(Cl)cc1Cl)c1cc(C#CC(C)(C)C)sc1C(=O)O [Compound 96, Sodium 3-[(2,4-dichloro-benzoyl)-isopropyl-amino]-5-(3,3-dimethyl-but-1-ynyl)-thiophene-2-carboxylate] the IC50 [1] was 100 to 1000 nM, the IC50 ([3]; Hepatitis C virus, Huh-7, 96 h) was < 100 nM and the CC50 at 72 h [2] was 10000 to 100000 nM.

Cc1ccc(C(=O)N(c2cc(C#CC(C)(C)C)sc2C(=O)O)[C@H]2CC[C@H](O)CC2)cc1 [Compound 19, 5-(3,3-Dimethyl-but-1-ynyl)-3-[(trans-4-hydroxy-cyclohexyl)-(4-methyl-benzoyl)-amino]-thiophene-2-carboxylic acid] gave an IC50 [1] of 1000 to 10000 nM.

CC(C)N(C(=O)c1ccc(Cl)cc1Cl)c1cc(C#CC(C)(C)C)sc1C(=O)O [Compound 1, 3-[(2,4-Dichloro-benzoyl)-isopropyl-amino]-5-(3,3-dimethyl-but-1-ynyl)-thiophene-2-carboxylic acid] gave an IC50 ([1]; read-out: HCV Polymerase_1b IC50, recombinant truncated NS5B genotype 1b, poly rA/oligo dT, [3H]UTP SPA) of 100 to 1000 nM and an IC50 [3] of 100 to 1000 nM.

Molecule Cc1ccc(C(=O)N(c2cc(C#CC(C)(C)C)sc2C(=O)O)[C@H]2CC[C@H](O)CC2)c(Cl)c1 [Compound 53, 3-[(2-Chloro-4-methyl-benzoyl)-(trans-4-hydroxy-cyclohexyl)-amino]-5-(3,3-dimethyl-but-1-ynyl)-thiophene-2-carboxylic acid] has an IC50 [1] of 1000 to 10000 nM and a CC50 at 72 h [2] of 10000 to 100000 nM.

With CC(C)(C)C#Cc1cc(N(C(=O)c2ccc(Cl)cc2Cl)C2CCOCC2)c(C(=O)O)s1 [Compound 26, 3-[(2,4-Dichloro-benzoyl)-(tetrahydro-pyran-4-yl)-amino]-5-(3,3-dimethyl-but-1-ynyl)-thiophene-2-carboxylic acid] the IC50 [1] was 1000 to 10000 nM, the IC50 ([3]; Hepatitis C virus, Huh-7, 96 h) was < 100 nM and the CC50 at 72 h [2] was 10000 to 100000 nM.

With Cc1ccccc1C(=O)N(c1cc(C#CC(C)(C)C)sc1C(=O)O)[C@H]1CC[C@H](O)CC1 [Compound 88, 5-(3,3-Dimethyl-but-1-ynyl)-3-[(trans-4-hydroxy-cyclohexyl)-(2-methyl-benzoyl)-amino]-thiophene-2-carboxylic acid] the IC50 [1] was 1000 to 10000 nM and the CC50 at 72 h [2] was > 100000 nM.

In the case of CC(C)(C)C#Cc1cc(N(C(=O)c2ccc(Cl)c(F)c2)[C@H]2CC[C@H](O)CC2)c(C(=O)O)s1 [Compound 52, 3-[(4-Chloro-3-fluoro-benzoyl)-(trans-4-hydroxy-cyclohexyl)-amino]-5-(3,3-dimethyl-but-1-ynyl)-thiophene-2-carboxylic acid], the IC50 [1] is reported as 1000 to 10000 nM and the CC50 at 72 h [2] is reported as 10000 to 100000 nM.

CC(C)(C)C#Cc1cc(N(CCO)C(=O)c2ccc(Cl)cc2Cl)c(C(=O)O)s1 [Compound 97, 3-[(2,4-Dichloro-benzoyl)-(2-hydroxy-ethyl)-amino]-5-(3,3-dimethyl-but-1-ynyl)-thiophene-2-carboxylic acid] gave an IC50 [1] of 100 to 1000 nM, an IC50 ([3]; Hepatitis C virus, Huh-7, 96 h) of 100 to 1000 nM and a CC50 at 72 h [2] of 10000 to 100000 nM.

For Cc1ccc(C(=O)N(c2cc(C#CC(C)(C)C)sc2C(=O)O)[C@H]2CC[C@H](O)CC2)c(C)c1 [Compound 18, 3-[(2,4-Dimethyl-benzoyl)-(trans-4-hydroxy-cyclohexyl)-amino]-5-(3,3-dimethyl-but-1-ynyl)-thiophene-2-carboxylic acid], the IC50 [1] was 100 to 1000 nM, the IC50 ([3]; Hepatitis C virus, Huh-7, 96 h) was < 100 nM and the CC50 at 72 h [2] was 10000 to 100000 nM.

For CC(C)(C)C#Cc1cc(N(C(=O)c2ccccc2Cl)[C@H]2CC[C@H](O)CC2)c(C(=O)O)s1 [Compound 87, 3-[(2-Chloro-benzoyl)-(trans-4-hydroxy-cyclohexyl)-amino]-5-(3,3-dimethyl-but-1-ynyl)-thiophene-2-carboxylic acid], the IC50 [1] was 1000 to 10000 nM and the CC50 at 72 h [2] was > 100000 nM.

In the case of Cc1ccc(C(=O)N(c2cc(C#CC(C)(C)C)sc2C(=O)O)[C@H]2CC[C@H](O)CC2)c(F)c1F [Compound 89, 3-[(2,3-Difluoro-4-methyl-benzoyl)-(trans-4-hydroxy-cyclohexyl)-amino]-5-(3,3-dimethyl-but-1-ynyl)-thiophene-2-carboxylic acid], the IC50 [1] is reported as 1000 to 10000 nM and the CC50 at 72 h [2] is reported as 10000 to 100000 nM.

Reference: US20130136719A1, “COMPOUNDS AND METHODS FOR THE TREATMENT OR PREVENTION OF FLAVIVIRUS INFECTIONS” (VERTEX PHARMACEUTICALS INCORPORATED, priority 2009, published 2013)
